From patent US20020055541A1, “Compositions containing hypotriglyceridemically active stilbenoids” (Shaman Pharmaceuticals, Inc., priority 2000, published 2002)

Assays:
[1] = reported by Arichi et al., Chem. Pharm. Bull. 30(5) 1766-1770 (1982); cited from earlier work
[2] = Body weight in fat fed, STZ treated rats; assay type: in vivo, rat; details: 250 mg/kg q.d., FIG. 3
Description: (§1) FIG. 3 is a line graph showing the mean body weight […] in fat fed, STZ treated rats administered with GELUCIRE™ vehicle only; and 3-hydroxy-4-(3-methyl-2-butenyl)-5-methoxystilbene-2-carboxylic acid (Compound A). -O- represents vehicle; and -▪- represents Compound A administered at 250 mg/kg q.d. Animals were administered the vehicle and compounds at 24, 48, 72 and 96 h, and […] were measured at 0, 30, 51, 54, 75 and 80 hours after the oral administration. All data points N=8. *P<0.05 (analysis of variance (ANOVA), one factor).
(§2) Male Sprague Dawley rats arrival from Charles River Laboratories, Hollister, Calif., were fed a high fat (20% by weight) diet (TD 78463) obtained from Harlan Teklad, Madison, Wis., which was stored at 4° C. prior to use. Administration of a high fed diet is a well-known method of inducing hypertriglyceridemia in rats.
(§3) Compound A formulations were prepared fresh daily. The appropriate amount of Compound A in GELUCIRE™ was administered by oral gavage at a volume of 2.5 ml/kg of body weight. Animals were fasted at 8:00 am each day.

[3] = Food consumption in fat fed, STZ treated rats; assay type: in vivo, rat; details: 250 mg/kg q.d., FIG. 4
Description: as §1, with “FIG. 4” for “FIG. 3”, “mean food consumption” for “mean body weight”
as §2, §3

[4] = test system: fat fed, STZ treated male Sprague Dawley rats; experiment: Serum triglyceride levels in fat-fed STZ treated rats (model of hypertriglyceridemia); assay type: in vivo, rat
Excerpt: This example illustrates the effectiveness of the stilbenoids of formula (I) in reducing serum triglyceride levels in fat-fed STZ treated male Sprague Dawley rats, i.e., an art-recognized model of hypertriglyceridemia.
This example illustrates the effectiveness of the stilbenoids of formula (I), e.g. longistyline A-2-carboxylic acid (Compound A) in reducing serum triglyceride levels in fat fed, STZ treated male Sprague Dawley rats, i.e., an art recognized model of hypertriglyceridemia. […]
Blood samples from tail snips bleeds were collected six hours after the dose on day one, and three (3) and six (6) hours after the administration of the dose on days 2 through 4 into M brand (Becton Dickinson, Franklin Lakes, NJ) serum separator tubes, and centrifuged at 12,000 rpm for 10 minutes. Serum was removed and triglyceride levels were measured using enzymatic […] methods (M. W. McGowan, et al., Clin. Chem. 29, 538 (1983) and P Trinder, Ann. Clin. Biochem. 6, 24 (1969)) using Sigma Diagnostic Kits, Sigma Chemical Company, St. Louis, Mo.
Triglyceride levels are expressed as the mean +SEM. Data were analyzed by one-way analysis of variance (ANOVA), followed by post-hoc Fisher's protected least squares difference (PLSD) tests. […]

[5] = reported by Inamori et al., Chem. Phar. Bull. 33(7):2904-09 (1985); cited from earlier work

In the case of `OC[C@H]1O[C@@H](Oc2cc(O)cc(/C=C/c3ccc(O)cc3)c2)[C@H](O)[C@@H](O)[C@@H]1O` [Piceid, 3,4′,5-trihydroxystilbene-3-O-β-D-glucopyranoside], the Liver lipid levels [1] is listed as “lower” and the Serum triglyceride levels [1] is listed as “lower”.
In the case of `OC[C@H]1OC(Oc2c(O)cc(O)cc2C=Cc2ccc(O)cc2)[C@H](O)[C@@H](O)[C@@H]1O` (stereo partly drawn) [2,3,5,4′-tetrahydroxy stilbene-2-O-D-glucoside], the Serum triglyceride levels [1] is given as “reduce”.
With `COc1cc(/C=C/c2ccccc2)c(C(=O)O)c(O)c1CC=C(C)C` [Compound A, 3-hydroxy-4-(3-methyl-2-butenyl)-5-methoxystilbene-2-carboxylic acid] the “Gain in rat body weight over the course of treatment” value [2] was “normal and similar among the treatment groups”, the “Food intake (daily mean food consumption)” value [3] was “not effected by the treatments” and the “Serum triglyceride (TG) levels vs vehicle only, at each of the time points” value ([4]; 250 mg/kg body weight q.d. oral gavage in GELUCIRE vehicle, fat fed STZ rats, N=8, p<0.05, FIG. 2) was “significantly lower”. The “Mean TG levels vs GELUCIRE vehicle group, compared at individual sampling times” value ([4]; 250 mg/kg body weight q.d., from day 2 through the end of treatment) was “significantly lower”.
In the case of `Oc1cc(O)cc(C=Cc2ccc(O)c(O)c2)c1` [3,3′,4,5′-tetrahydroxystilbene], the Antifungal activity [5] is listed as “strong”.
